Experimental data: patent publication US20200325505A1, “FILAMENTOUS FUNGI CAPABLE OF PRODUCING VERY LONG CHAIN FATTY ACIDS” (UT-Battelle, LLC, priority 2019, published 2020)
Like-named read-outs stand apart in the source and are kept apart here. Residues, ends and D or L forms follow the SMILES beside them.

System: Mortierella elongata AG77
Assay: Nitrogen source utilisation in Biolog 96-well plates, formazan formation after tetrazolium addition
Type: cell-based
Conditions: for Metabolized: Metabolized = more formazan formation than a control containing no nitrogen source, observed visually at 2 h, 24 h, 148 h; for Nitrogen sources that Mortierella elongata AG77 can metabolize: text summary of Table 4
Experimental: Two 300 mL volumes of growth medium comprising 1 g/L KH2PO4, 1 g/L MgSO4 7H2O, 0.1 g/L CaCl2, 0.02 g/L FeNaEDTA, 0.1 g/L NaCl, and either 1 g/L NH4NO3 or 20 g/L sucrose were prepared. […] Aliquots of 200 μL of carbon-free medium or nitrogen-free medium were pipetted into each well of a set of 96-well plates previously prepared with lyophilized putative carbon or nitrogen sources (Biolog Inc., Hayward, Calif.). Inocula were prepared by perforating a culture of Mortierella elongata AG77 grown on 20 g/L potato dextrose agar with a 3 mm diameter cork borer and separating the surface mycelial mat from the solid growth medium using tweezers. Each well was inoculated with one inoculum. Cultures were incubated at 21° C. for 24 hours to allow metabolic changes to stabilize, and then 100 μL of 3 g/L tetrazolium chloride in water was added to each well.
Conclusions were based on rate and intensity of formazan formation using the 3-(4,5-dimethylthiazol-2-yl)-2,5-diphenyltetrazolium bromide ([…]) assay. “Metabolized” indicates more formazan formation than a control containing no nitrogen source, and “Toxic” indicates less formazan formation than a control containing no nitrogen source, “Metabolized” and “Toxic” assignments are mutually exclusive. In this example, a compound may be “Metabolized” or “Toxic,” but not both.

[1] = compound as nitrogen source, Toxic = less formazan formation than a control containing no nitrogen source

Structure (SMILES)	Toxic	Metabolized (compound as nitrogen source)	Toxic [1]	Nitrogen sources that Mortierella elongata AG77 can metabolize
N [Ammonia]	no	no	–	–
NC(=O)NC(N)=O [Biuret]	–	no	no	–
Nc1ccn([C@@H]2O[C@H](CO)[C@@H](O)[C@H]2O)c(=O)n1 [Cytidine]	no	yes	–	can metabolize
Nc1cc[nH]c(=O)n1 [Cytosine]	no	no	–	–
NC(=O)C[C@@H](N)C(=O)O [D-Asparagine]	no	no	–	–
N[C@H]1C(O)O[C@H](CO)[C@H](O)[C@@H]1O (stereo partly drawn) [D-Galactosamine]	no	no	–	–
N[C@H](CCC(=O)O)C(=O)O [D-Glutamic Acid]	–	no	no	–
NCCCC[C@@H](N)C(=O)O [D-Lysine]	no	no	–	–
N[C@@H]1C(O)O[C@H](CO)[C@@H](O)[C@@H]1O (stereo partly drawn) [D-Mannosamine]	no	no	–	–
CC(C)[C@@H](N)C(=O)O [D-Valine]	no	no	–	–
CCN [Ethylamine]	–	no	no	–
NCCN [Ethylenediamine]	no	no	–	–
NC=O [Formamide]	–	no	no	–
NCC(=O)N[C@@H](CC(N)=O)C(=O)O [Gly-Asn] (H-Gly-Asn-OH)	–	no	no	–
NCC(=O)N[C@@H](CCC(N)=O)C(=O)O [Gly-Gln] (H-Gly-Gln-OH)	–	no	no	–
CSCC[C@H](NC(=O)CN)C(=O)O [Gly-Met]	–	no	no	–
Nc1nc2nc[nH]c2c(=O)[nH]1 [Guanine]	yes	no	–	–
Nc1nc2c(ncn2[C@@H]2O[C@H](CO)[C@@H](O)[C@H]2O)c(=O)[nH]1 [Guanosine]	–	no	no	–

Structure (SMILES)	Toxic	Metabolized (compound as nitrogen source)	Toxic [1]	Nitrogen sources that Mortierella elongata AG77 can metabolize
NCCc1c[nH]cn1 [Histamine]	no	no	–	–
NO [Hydroxylamine]	–	no	–	–
NC(=O)NCCC[C@H](N)C(=O)O [L-Citrulline]	–	no	no	–
N[C@@H](CS)C(=O)O [L-Cysteine]	–	no	–	–
N[C@@H](Cc1c[nH]c2ccccc12)C(=O)O [L-Tryptophan]	no	no	–	–
N[C@@H](Cc1ccc(O)cc1)C(=O)O [L-Tyrosine]	–	no	no	–
CSCC[C@H](N)C(=O)N[C@@H](C)C(=O)O [Met-Ala] (H-Met-Ala-OH)	–	no	no	–
CN [Methylamine]	–	no	no	–
CC(=O)N[C@@H]1C(O)O[C@H](CO)[C@@H](O)[C@@H]1O (stereo partly drawn) [N-Acetyl-D-Mannosamine]	–	no	no	–
CCCCCN [N-Amylamine]	no	no	–	–
CCCCN [N-Butylamine]	–	no	no	–
O=NO [Nitrite]	–	no	no	–
O=C1NC(=O)C(=O)N1 [Parabanic Acid]	–	yes	no	can metabolize
Cc1c[nH]c(=O)[nH]c1=O [Thymine]	no	no	–	–
O=c1cc[nH]c(=O)[nH]1 [Uracil]	no	no	–	–
NC(N)=O [Urea]	–	no	no	–
O=c1[nH]c(=O)c2[nH]c(=O)[nH]c2[nH]1 [Uric Acid]	–	no	no	–
O=c1[nH]c(=O)c2[nH]cnc2[nH]1 [Xanthine]	no	no	–	–
